Assay results reported in PubChem BioAssay AID248 (DTP/NCI, 2004).
Several values for one entry are separate records, joined by “and”; a condition that tells them apart may be missing. Equal entries are not always repeated. Toxic doses and inconclusive results are not listed.

Test system: L1210 leukemia ip in BDF1 mice, survival T/C
Assay: NCI In Vivo Anticancer Drug Screen. Data for tumor model L1210 Leukemia (intraperitoneal) in B6D2F1 (BDF1) mice
Conditions: endpoint: mean survival time, higher = longer survival
Outline: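 Mice bearing the transplanted tumor received compound or vehicle. Survival of the treated group was divided by that of the vehicle-treated control group to give the ratio.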

[1] = dose: 100.0 mg/kg/injection, schedule: Q01DX009 (ip), vehicle: Klucel (hydroxypropylcellulose) (HPC)
[2] = dose: 100.0 mg/kg/injection, schedule: Q01DX009 (ip), vehicle: saline with Tween-80
[3] = dose: 100.0 mg/kg/injection, schedule: Q04DX003 (ip), vehicle: Klucel (hydroxypropylcellulose) (HPC)
[4] = dose: 200.0 mg/kg/injection, schedule: Q01DX009 (ip), vehicle: saline with Tween-80
[5] = dose: 200.0 mg/kg/injection, schedule: Q04DX003 (ip), vehicle: Klucel (hydroxypropylcellulose) (HPC)
[6] = dose: 400.0 mg/kg/injection, schedule: Q01DX009 (ip), vehicle: saline with Tween-80
[7] = dose: 400.0 mg/kg/injection, schedule: Q04DX003 (ip), vehicle: Klucel (hydroxypropylcellulose) (HPC)
[8] = dose: 100.0 mg/kg/injection, schedule: Q04DX003 (ip), vehicle: saline
[9] = dose: 200.0 mg/kg/injection, schedule: Q04DX003 (ip), vehicle: saline
[10] = dose: 400.0 mg/kg/injection, schedule: Q04DX003 (ip), vehicle: saline
[11] = dose: 50.0 mg/kg/injection, schedule: Q01DX009 (ip), vehicle: saline
[12] = dose: 100.0 mg/kg/injection, schedule: Q01DX009 (ip), vehicle: saline
[13] = dose: 100.0 mg/kg/injection, schedule: Q04DX003 (ip), vehicle: saline with Tween-80
[14] = dose: 200.0 mg/kg/injection, schedule: Q04DX003 (ip), vehicle: saline with Tween-80
[15] = dose: 400.0 mg/kg/injection, schedule: Q04DX003 (ip), vehicle: saline with Tween-80
[16] = dose: 100.0 mg/kg/injection, schedule: Q04DX002 (ip), vehicle: Klucel (hydroxypropylcellulose) (HPC)
[17] = dose: 200.0 mg/kg/injection, schedule: Q04DX002 (ip), vehicle: Klucel (hydroxypropylcellulose) (HPC)
[18] = dose: 400.0 mg/kg/injection, schedule: Q04DX002 (ip), vehicle: Klucel (hydroxypropylcellulose) (HPC)
[19] = dose: 200.0 mg/kg/injection, schedule: Q01DX009 (ip), vehicle: saline
[20] = dose: 100.0 mg/kg/injection, schedule: Q01DX001 (ip), vehicle: carboxymethylcellulose (CMC)

With CC(C)NNC(=O)c1ccc(Cl)cc1 as the molecule, how does the T/C (dose: 25.0 mg/kg/injection, schedule: Q01DX009 (ip), vehicle: Klucel (hydroxypropylcellulose) (HPC)) read?
The T/C was 92 % of control.

What about the T/C (dose: 25.0 mg/kg/injection, schedule: Q04DX003 (ip), vehicle: Klucel (hydroxypropylcellulose) (HPC)) of the same molecule?
The T/C was 96 % of control.

And the T/C (dose: 50.0 mg/kg/injection, schedule: Q01DX009 (ip), vehicle: Klucel (hydroxypropylcellulose) (HPC))?
The T/C was 93 % of control.

And the T/C (dose: 50.0 mg/kg/injection, schedule: Q04DX003 (ip), vehicle: Klucel (hydroxypropylcellulose) (HPC))?
The T/C was 89 % of control.

What about the T/C [1] of the same molecule?
The T/C was 103 % of control.

And the T/C [2]?
The T/C was 88 % of control.

And the T/C [3]?
The T/C was 94 % of control.

And the T/C [4]?
The T/C was 98 % of control.

And the T/C [5]?
The T/C was 86 % of control.

What about the T/C [6] of the same molecule?
The T/C was 90 % of control.

What about the T/C [7] of the same molecule?
Its T/C is 102 % of control.

How did the T/C [8] turn out when CCN(Cc1ccccc1)C(=S)[S-].CCN(Cc1ccccc1)C(=S)[S-].[Zn] was run?
Its T/C is 91 % of control.

What about the T/C [9] of the same molecule?
Its T/C is 94 % of control.

And the T/C [10]?
The T/C was 89 % of control.

CCN(Cc1cc(OC)c(OC)c(OC)c1)C1CCCCC1 was tested. Which T/C [11] did it give?
Its T/C is 113 % of control.

And the T/C [12]?
Its T/C is 98 % of control.

COc1ccccc1NC(=O)Nc1ccccc1Cl was tested. Which T/C [2] did it give?
The T/C was 88 % of control.

And the T/C [13]?
The T/C was 89 % of control.

And the T/C [4]?
The T/C was 112 % of control.

What about the T/C [14] of the same molecule?
The T/C was 92 % of control.

What about the T/C [6] of the same molecule?
The T/C was 92 % of control.

What about the T/C [15] of the same molecule?
The T/C was 89 % of control.

How did the T/C [16] turn out when Cc1cccc(C)c1NC(=S)Nc1ccccc1 was run?
The T/C was 101 % of control.

And the T/C [17]?
Its T/C is 105 % of control.

What about the T/C [18] of the same molecule?
Its T/C is 90 % of control.

Which results are given for CCCC(CC#N)(CCC)CCC?
T/C (dose: 37.5 mg/kg/injection, schedule: Q01DX Z (ip), vehicle: carboxymethylcellulose (CMC)): 97 % of control; T/C (dose: 75.0 mg/kg/injection, schedule: Q01DX Z (ip), vehicle: carboxymethylcellulose (CMC)): 101 % of control; T/C (dose: 100.0 mg/kg/injection, schedule: Q01DX Z (ip), vehicle: carboxymethylcellulose (CMC)): 95 % of control; T/C (dose: 200.0 mg/kg/injection, schedule: Q01DX Z (ip), vehicle: carboxymethylcellulose (CMC)): 100 % of control

Which T/C [16] does the source give for O=C1NCCC/C1=N/Nc1ccccc1 here?
The T/C was 92 % of control.

And the T/C [17]?
The T/C was 92 % of control.

What about the T/C [18] of the same molecule?
Its T/C is 113 % of control.

With O=P(OCc1ccccc1)(N(CCO)CCO)N(CCCl)CCCl (centres undefined) as the molecule, how does the T/C (dose: 25.0 mg/kg/injection, schedule: Q01DX Z (ip), vehicle: saline) read?
Its T/C is 91 % of control.

And the T/C (dose: 50.0 mg/kg/injection, schedule: Q01DX Z (ip), vehicle: saline)?
The T/C was 100 % of control.

And the T/C (dose: 100.0 mg/kg/injection, schedule: Q01DX Z (ip), vehicle: saline)?
Its T/C is 94 % of control.

And the T/C (dose: 200.0 mg/kg/injection, schedule: Q01DX Z (ip), vehicle: saline)?
The T/C was 103 % of control.

Which T/C (dose: 100.0 mg/kg/injection, schedule: Q04DX002 (ip), vehicle: saline with Tween-80) does the source give for O=C1c2cccc3c([N+](=O)[O-])ccc(c23)C(=O)N1CCc1ccccn1 here?
Its T/C is 106 % of control.

And the T/C (dose: 200.0 mg/kg/injection, schedule: Q04DX002 (ip), vehicle: saline with Tween-80)?
Its T/C is 95 % of control.

And the T/C (dose: 400.0 mg/kg/injection, schedule: Q04DX002 (ip), vehicle: saline with Tween-80)?
Its T/C is 103 % of control.

What does the source list for CCOC(=O)C(C=O)C(C(=O)OCC)C(OCC)OCC (centres undefined)?
T/C [13]: 111 % of control; T/C [14]: 104 % of control; T/C [15]: 109 % of control

What does the source list for CC(=O)NOCc1ccc(Cl)cc1?
T/C [3]: 100 % of control; T/C [5]: 95 % of control; T/C [7]: 95 % of control

With CCC[CH2][Sn]([CH2]CCC)([n]1cncn1)[n]1cncn1 as the molecule, how does the T/C (dose: 3.13 mg/kg/injection, schedule: Q04DX003 (ip), vehicle: saline with Tween-80) read?
The T/C was 101 % of control.

What about the T/C (dose: 6.25 mg/kg/injection, schedule: Q04DX002 (ip), vehicle: saline with Tween-80) of the same molecule?
Its T/C is 104 % of control.

And the T/C (dose: 6.25 mg/kg/injection, schedule: Q04DX003 (ip), vehicle: saline with Tween-80)?
The T/C was 101 % of control.

What about the T/C (dose: 12.5 mg/kg/injection, schedule: Q04DX002 (ip), vehicle: saline with Tween-80) of the same molecule?
The T/C was 104 % of control.

What about the T/C (dose: 12.5 mg/kg/injection, schedule: Q04DX003 (ip), vehicle: saline with Tween-80) of the same molecule?
The T/C was 95 % of control.

What about the T/C (dose: 25.0 mg/kg/injection, schedule: Q04DX002 (ip), vehicle: saline with Tween-80) of the same molecule?
The T/C was 93 % of control.

For CC(=O)NC1C(OC(C)=O)OC(COC(C)=O)C(OC(C)=O)C1OC(C)=O (centres undefined), which T/C (dose: 100.0 mg/kg/injection, schedule: Q01DX001 (ip), vehicle: saline with Tween-80) is on record?
Its T/C is 100 % of control.

What about the T/C (dose: 200.0 mg/kg/injection, schedule: Q01DX001 (ip), vehicle: saline with Tween-80) of the same molecule?
The T/C was 103 % of control.

What about the T/C (dose: 400.0 mg/kg/injection, schedule: Q01DX001 (ip), vehicle: saline with Tween-80) of the same molecule?
The T/C was 103 % of control.

Which T/C (dose: 50.0 mg/kg/injection, schedule: Q04DX003 (ip), vehicle: saline with Tween-80) does the source give for O=S(=O)(c1ccccc1)c1nn2nnnc2c2ccccc12 here?
The T/C was 107 % of control.

And the T/C [13]?
Its T/C is 104 % of control.

And the T/C [14]?
The T/C was 103 % of control.

What does the source list for BrCC(Br)C(Br)CBr (centres undefined)?
T/C [12]: 93 % of control; T/C [8]: 113 % of control; T/C [19]: 97 % of control; T/C [9]: 108 % of control; T/C (dose: 400.0 mg/kg/injection, schedule: Q01DX009 (ip), vehicle: saline): 93 % of control; T/C [10]: 98 % of control

Cc1ccc(Cl)cc1NC(=O)C(Br)C(Br)C(=O)O (centres undefined) was tested. Which T/C [1] did it give?
Its T/C is 91 % of control.

What about the T/C (dose: 200.0 mg/kg/injection, schedule: Q01DX009 (ip), vehicle: Klucel (hydroxypropylcellulose) (HPC)) of the same molecule?
Its T/C is 101 % of control.

With CCOC(=O)c1cc(Cl)cc(Cl)c1N/N=[N+](\C)[O-] as the molecule, how does the T/C (dose: 50.0 mg/kg/injection, schedule: Q01DX009 (ip), vehicle: saline with Tween-80) read?
Its T/C is 117 % of control.

And the T/C [2]?
The T/C was 87 % of control.

And the T/C [4]?
Its T/C is 93 % of control.

Which results are given for CC(C)(C)c1cccc(C(=O)O)c1O?
T/C [20]: 97 % of control; T/C (dose: 200.0 mg/kg/injection, schedule: Q01DX001 (ip), vehicle: carboxymethylcellulose (CMC)): 97 % of control; T/C (dose: 400.0 mg/kg/injection, schedule: Q01DX001 (ip), vehicle: carboxymethylcellulose (CMC)): 90 % of control

With O=NN(CCCl)C(=O)Nc1ccc(Br)cn1 as the molecule, how does the T/C (dose: 3.0 mg/kg/injection, schedule: Q01DX009 (ip), vehicle: carboxymethylcellulose (CMC)) read?
The T/C was 97 % of control.

And the T/C (dose: 6.0 mg/kg/injection, schedule: Q01DX009 (ip), vehicle: carboxymethylcellulose (CMC))?
The T/C was 103 % of control.

What about the T/C (dose: 10.0 mg/kg/injection, schedule: Q01DX009 (ip), vehicle: carboxymethylcellulose (CMC)) of the same molecule?
Its T/C is 186 % of control.

What about the T/C (dose: 12.0 mg/kg/injection, schedule: Q01DX009 (ip), vehicle: carboxymethylcellulose (CMC)) of the same molecule?
Its T/C is 119 % of control.

And the T/C (dose: 15.0 mg/kg/injection, schedule: Q01DX009 (ip), vehicle: carboxymethylcellulose (CMC))?
The T/C was 154 % of control.

What about the T/C (dose: 22.5 mg/kg/injection, schedule: Q01DX009 (ip), vehicle: carboxymethylcellulose (CMC)) of the same molecule?
The T/C was 158 % of control.

What about the T/C (dose: 29.0 mg/kg/injection, schedule: Q01DX009 (ip), vehicle: carboxymethylcellulose (CMC)) of the same molecule?
Its T/C is 157 % of control.

What about the T/C (dose: 66.0 mg/kg/injection, schedule: Q01DX001 (ip), vehicle: carboxymethylcellulose (CMC)) of the same molecule?
Its T/C is 151 % of control.

And the T/C [20]?
Its T/C is 150 % of control and 173 % of control.

What about the T/C (dose: 150.0 mg/kg/injection, schedule: Q01DX001 (ip), vehicle: carboxymethylcellulose (CMC)) of the same molecule?
Its T/C is 102 % of control and 109 % of control.

With CN(CCO)N=Nc1ccccc1Cl as the molecule, how does the T/C (dose: 25.0 mg/kg/injection, schedule: Q01DX009 (ip), vehicle: other) read?
The T/C was 101 % of control.

What about the T/C (dose: 50.0 mg/kg/injection, schedule: Q01DX009 (ip), vehicle: other) of the same molecule?
Its T/C is 100 % of control.

What about the T/C (dose: 100.0 mg/kg/injection, schedule: Q01DX009 (ip), vehicle: other) of the same molecule?
The T/C was 94 % of control.

Which results are given for CCc1nccc(=O)[nH]1?
T/C [11]: 102 % of control and 101 % of control; T/C [12]: 88 % of control and 110 % of control; T/C [8]: 94 % of control and 110 % of control; T/C [19]: 100 % of control and 103 % of control; T/C [9]: 89 % of control and 104 % of control
